Data published in paper PMC9281440, “In Vivo Distribution and Therapeutic Efficacy of Radioiodine-Labeled pH-Low Insertion Peptide Variant 3 in a Mouse Model of Breast Cancer” (Molecular Imaging, 2022).
Values joined by “and” are separate entries in the source; they are usually repeats but may differ in a detail not shown here. Equal values may be shown once. Read-outs that look alike come from different tables or passages of the source. Peptide text beside a SMILES is read from it.

Key:
Assay type in all cases: in vivo, mouse
[1] = Micro-SPECT/CT imaging and distribution of 125I-labeled pHLIPs; details: female, mouse, total radioactivity, 3.7 MBq iv, micro-SPECT/CT ROI, mean ± SD, n = 4; for tissue uptake at 1 h: 1 h pi; for tissue uptake at 2 h: 2 h pi; for tissue uptake at 4 h: 4 h pi; for tissue uptake at 24 h: 24 h pi; for tissue uptake at 48 h: 48 h pi
Description: (§1) Five-week-old female athymic BALB/c nude mice (Shanghai Slaccas Experiment Animal Corp., Shanghai, China) were used in our study. Mouse xenograft models of MDA-MB-231, 4T1, and SK-BR-3 cells were produced by the subcutaneous injection of 5 × 10^6 cells (suspended in 150 μL PBS) into the right axilla of each mouse. The mice were used in subsequent experiments when tumor diameter reached 0.5-0.9 cm. The study protocol was approved by the institutional review board and by the Experimental Animal Center of Ruijin Hospital affiliated to the School of Medicine of Shanghai Jiao Tong University.
(§2) Three days before micro-SPECT/CT imaging, 300 μL of 1% Kl solution was administered to mice by oral gavage once a day, and 0.1% Kl was added into the drinking water to block thyroid gland activity. Mice-bearing MDA-MB-231, 4T1, or SK-BR-3 tumors were intravenously injected with 3.7 MBq of ^125I-WT-pHLIP or ^125I-Var3-pHLIP. Each group contained four mice. The mice were anesthetized by isoflurane inhalation, placed in the prone position, and scanned using a four-head SPECT/CT system (U-SPECT/CT, MI-Lab, Netherlands) and dedicated multipinhole apertures with a diameter of 1.5 mm at 1, 2, 4, 24, and 48 h after injection of ^125I-labeled peptides. CT images were acquired after static SPECT imaging (10 min/frame). The images were reconstructed using U-SPECT REC software and analyzed using PMOD software version 3.9 (Switzerland). Regions of interest (ROIs) were drawn in the tumors and organs, including the brain, heart, liver, lungs, kidneys, intestine, and bladder, at various time points. The radioactivity per gram (ID%/g) in the ROIs was measured to obtain the dynamic tumor-to-background ratio (TBR, muscle tissue was used as the background) and the in vivo distribution and kinetics of ^125I-WT-pHLIP and ^125I-Var3-pHLIP in the xenograft models of BC.

[2] = test system: SK-BR-3 tumor-bearing nude mice; test: as above
Description: as §1, §2

[3] = test system: MDA-MB-231 tumor-bearing nude mice; test: as above; details: MDA-MB-231 xenografts
Description: as §1, §2

[4] = BALB/c nude, bladder, MDA-MB-231 tumor-bearing nude mice, read-out: Distribution, Bladder
[5] = BALB/c nude, intestine, MDA-MB-231 tumor-bearing nude mice, read-out: Distribution, Intestine
[6] = BALB/c nude, muscle, MDA-MB-231 tumor-bearing nude mice, read-out: Distribution, Muscle
[7] = BALB/c nude, MDA-MB-231 tumor-bearing nude mice, read-out: Distribution, Tumor
[8] = BALB/c nude, SK-BR-3 tumor-bearing nude mice, read-out: Distribution, Tumor
[9] = athymic BALB/c nude, bladder, SK-BR-3 tumor-bearing nude mice, read-out: Distribution, Bladder
[10] = athymic BALB/c nude, brain, MDA-MB-231 tumor-bearing nude mice, read-out: Distribution, Brain
[11] = athymic BALB/c nude, brain, SK-BR-3 tumor-bearing nude mice, read-out: Distribution, Brain
[12] = athymic BALB/c nude, heart, MDA-MB-231 tumor-bearing nude mice, read-out: Distribution, Heart
[13] = athymic BALB/c nude, heart, SK-BR-3 tumor-bearing nude mice, read-out: Distribution, Heart
[14] = athymic BALB/c nude, intestine, SK-BR-3 tumor-bearing nude mice, read-out: Distribution, Intestine
[15] = athymic BALB/c nude, kidney, MDA-MB-231 tumor-bearing nude mice, read-out: Distribution, Kidney
[16] = athymic BALB/c nude, kidney, SK-BR-3 tumor-bearing nude mice, read-out: Distribution, Kidney
[17] = athymic BALB/c nude, liver, MDA-MB-231 tumor-bearing nude mice, read-out: Distribution, Liver
[18] = athymic BALB/c nude, liver, SK-BR-3 tumor-bearing nude mice, read-out: Distribution, Liver
[19] = athymic BALB/c nude, lung, MDA-MB-231 tumor-bearing nude mice, read-out: Distribution, Lung
[20] = athymic BALB/c nude, lung, SK-BR-3 tumor-bearing nude mice, read-out: Distribution, Lung
[21] = athymic BALB/c nude, muscle, SK-BR-3 tumor-bearing nude mice, read-out: Distribution, Muscle

CC(C)C[C@H](NC(=O)[C@H](Cc1ccc(O)c(I)c1)NC(=O)[C@H](C)NC(=O)[C@H](CCCNC(=N)N)NC(=O)[C@H](Cc1c[nH]c2ccccc12)NC(=O)[C@@H]1CCCN1C(=O)[C@H](CC(N)=O)NC(=O)[C@H](CCC(N)=O)NC(=O)[C@H](CC(=O)O)NC(=O)[C@H](CC(=O)O)NC(=O)[C@H](CS)NC(=O)[C@H](C)N)C(=O)N[C@@H](CC(=O)O)C(=O)N[C@@H](CC(C)C)C(=O)N[C@@H](CC(C)C)C(=O)N[C@@H](Cc1ccccc1)C(=O)N1CCC[C@H]1C(=O)N[C@H](C(=O)N[C@@H](CC(=O)O)C(=O)N[C@H](C(=O)N[C@@H](CC(C)C)C(=O)N[C@@H](CC(C)C)C(=O)N[C@@H](CC(C)C)C(=O)N[C@@H](CC(=O)O)C(=O)N[C@@H](CC(C)C)C(=O)N[C@@H](CC(C)C)C(=O)N[C@@H](Cc1c[nH]c2ccccc12)C(=O)N[C@@H](CCCCN)C(=O)O)[C@@H](C)O)[C@@H](C)O [125I-Var3-pHLIP] (HELM PEPTIDE1{A.C.D.D.Q.N.P.W.R.A.[O=C([C@H](Cc1ccc(O)c(I)c1)N[*:1])[*:2]].L.D.L.L.F.P.T.D.T.L.L.L.D.L.L.W.K}$$$$V2.0; N-terminus and C-terminus assumed)
tissue uptake at 1 h [1, 4]: 20.6 ± 5.71 %ID/g | tissue uptake at 2 h [1, 4]: 24.8 ± 3.51 %ID/g | tissue uptake at 4 h [1, 4]: 31.6 ± 15.9 %ID/g | tissue uptake at 24 h [1, 4]: 2.14 ± 0.88 %ID/g | tissue uptake at 48 h [1, 4]: 0.45 ± 0.14 %ID/g | tissue uptake at 1 h ([1]; BALB/c nude, brain, MDA-MB-231 tumor-bearing nude mice, read-out: Distribution, Brain): 1.02 ± 0.08 %ID/g | tissue uptake at 1 h [1, 5]: 2.59 ± 0.5 %ID/g | tissue uptake at 2 h [1, 5]: 3.18 ± 0.35 %ID/g | tissue uptake at 4 h [1, 5]: 2.12 ± 0.33 %ID/g | tissue uptake at 24 h [1, 5]: 0.2 ± 0.09 %ID/g | tissue uptake at 48 h [1, 5]: 0.1 ± 0.06 %ID/g | tissue uptake at 1 h [1, 6]: 1.12 ± 0.28 %ID/g | tissue uptake at 2 h [1, 6]: 0.96 ± 0.32 %ID/g | tissue uptake at 4 h [1, 6]: 0.67 ± 0.21 %ID/g | tissue uptake at 24 h [1, 6]: 0.09 ± 0.03 %ID/g | tissue uptake at 48 h [1, 6]: 0.04 ± 0.01 %ID/g | tissue uptake at 1 h [1, 7]: 3.16 ± 0.67 %ID/g | tissue uptake at 2 h [1, 7]: 3.76 ± 0.37 %ID/g | tissue uptake at 4 h [1, 7]: 3.09 ± 0.44 %ID/g | tissue uptake at 24 h [1, 7]: 0.47 ± 0.12 %ID/g | tissue uptake at 48 h [1, 7]: 0.22 ± 0.07 %ID/g | tissue uptake at 2 h [1, 8]: 2.94 ± 0.71 %ID/g | tissue uptake at 4 h [1, 8]: 2.45 ± 0.32 %ID/g | tissue uptake at 24 h [1, 8]: 0.26 ± 0.06 %ID/g | tissue uptake at 48 h [1, 8]: 0.18 ± 0.06 %ID/g | tissue uptake at 1 h [1, 9]: 18.2 ± 4.14 %ID/g | tissue uptake at 2 h [1, 9]: 18.7 ± 15.6 %ID/g | tissue uptake at 4 h [1, 9]: 23.4 ± 6.56 %ID/g | tissue uptake at 24 h [1, 9]: 2.44 ± 2.14 %ID/g | tissue uptake at 48 h [1, 9]: 0.21 ± 0.21 %ID/g | tissue uptake at 2 h [1, 10]: 1.13 ± 0.12 %ID/g | tissue uptake at 4 h [1, 10]: 0.75 ± 0.27 %ID/g | tissue uptake at 24 h [1, 10]: 0.13 ± 0.07 %ID/g | tissue uptake at 48 h [1, 10]: 0.09 ± 0.05 %ID/g | tissue uptake at 1 h [1, 11]: 1.02 ± 0.07 %ID/g | tissue uptake at 2 h [1, 11]: 0.95 ± 0.07 %ID/g | tissue uptake at 4 h [1, 11]: 0.68 ± 0.2 %ID/g | tissue uptake at 24 h [1, 11]: 0.09 ± 0.02 %ID/g | tissue uptake at 48 h [1, 11]: 0.09 ± 0.01 %ID/g | tissue uptake at 1 h [1, 12]: 9.47 ± 1.54 %ID/g | tissue uptake at 2 h [1, 12]: 8.29 ± 0.52 %ID/g | tissue uptake at 4 h [1, 12]: 5.35 ± 0.93 %ID/g | tissue uptake at 24 h [1, 12]: 0.39 ± 0.13 %ID/g | tissue uptake at 48 h [1, 12]: 0.14 ± 0.05 %ID/g | tissue uptake at 1 h [1, 13]: 10.3 ± 0.54 %ID/g | tissue uptake at 2 h [1, 13]: 8.89 ± 0.18 %ID/g | tissue uptake at 4 h [1, 13]: 6.02 ± 1.35 %ID/g | tissue uptake at 24 h [1, 13]: 0.38 ± 0.08 %ID/g | tissue uptake at 48 h [1, 13]: 0.1 ± 0.02 %ID/g | tissue uptake at 1 h [1, 14]: 3.05 ± 0.68 %ID/g | tissue uptake at 2 h [1, 14]: 3.01 ± 0.26 %ID/g | tissue uptake at 4 h [1, 14]: 2.38 ± 0.68 %ID/g | tissue uptake at 24 h [1, 14]: 0.31 ± 0.14 %ID/g | tissue uptake at 48 h [1, 14]: 0.07 ± 0.04 %ID/g | tissue uptake at 1 h [1, 15]: 5.66 ± 2.26 %ID/g | tissue uptake at 2 h [1, 15]: 5.61 ± 0.71 %ID/g | tissue uptake at 4 h [1, 15]: 3.8 ± 0.89 %ID/g | tissue uptake at 24 h [1, 15]: 0.41 ± 0.04 %ID/g | tissue uptake at 48 h [1, 15]: 0.25 ± 0.13 %ID/g | tissue uptake at 1 h [1, 16]: 6.67 ± 1.07 %ID/g | tissue uptake at 2 h [1, 16]: 4.24 ± 0.97 %ID/g | tissue uptake at 4 h [1, 16]: 3.56 ± 0.65 %ID/g | tissue uptake at 24 h [1, 16]: 0.42 ± 0.11 %ID/g | tissue uptake at 48 h [1, 16]: 0.18 ± 0.1 %ID/g | tissue uptake at 1 h [1, 17]: 10.3 ± 1.33 %ID/g | tissue uptake at 2 h [1, 17]: 10.2 ± 0.66 %ID/g | tissue uptake at 4 h [1, 17]: 8.11 ± 1.63 %ID/g | tissue uptake at 24 h [1, 17]: 1 ± 0.54 %ID/g | tissue uptake at 48 h [1, 17]: 0.4 ± 0.22 %ID/g | tissue uptake at 1 h [1, 18]: 11.4 ± 0.87 %ID/g | tissue uptake at 2 h [1, 18]: 10.4 ± 1.6 %ID/g | tissue uptake at 4 h [1, 18]: 11.4 ± 2.75 %ID/g | tissue uptake at 24 h [1, 18]: 0.81 ± 0.2 %ID/g | tissue uptake at 48 h [1, 18]: 0.23 ± 0.02 %ID/g | tissue uptake at 1 h [1, 19]: 9.64 ± 0.8 %ID/g | tissue uptake at 2 h [1, 19]: 9.1 ± 0.61 %ID/g | tissue uptake at 4 h [1, 19]: 6.6 ± 0.88 %ID/g | tissue uptake at 24 h [1, 19]: 0.49 ± 0.22 %ID/g | tissue uptake at 48 h [1, 19]: 0.18 ± 0.05 %ID/g | tissue uptake at 1 h [1, 20]: 9.81 ± 0.82 %ID/g | tissue uptake at 2 h [1, 20]: 9.31 ± 1.03 %ID/g | tissue uptake at 4 h [1, 20]: 6.93 ± 1.24 %ID/g | tissue uptake at 24 h [1, 20]: 0.42 ± 0.12 %ID/g | tissue uptake at 48 h [1, 20]: 0.14 ± 0.05 %ID/g | tissue uptake at 1 h [1, 21]: 1.33 ± 0.3 %ID/g | tissue uptake at 2 h [1, 21]: 1.21 ± 0.26 %ID/g | tissue uptake at 4 h [1, 21]: 0.7 ± 0.12 %ID/g | tissue uptake at 24 h [1, 21]: 0.06 ± 0.02 %ID/g | tissue uptake at 48 h [1, 21]: 0.04 ± 0.02 %ID/g | tissue uptake at 1 h ([1]; athymic BALB/c nude, SK-BR-3 tumor-bearing nude mice, read-out: Distribution, Tumor): 2.68 ± 1.34 %ID/g | Distribution, Tumor ([2]; SK-BR-3 tumor-bearing nude mice, 2 h pi, 3.7 MBq iv, micro-SPECT/CT ROI, mean ± SD, n = 4): 2.93 ± 0.71 %ID/g and 2.93 ± 0.70 %ID/g | time after injection at which radioactive count in xenografts peaked ([2]; SK-BR-3 xenografts): 2 h | time after injection at which radioactive count in xenografts peaked [3]: 2 h
